Results from EP4748839A1 (CSPC Zhongqi Pharmaceutical Technology (Shijiazhuang) Co., …, priority 2023, dated 2025).

Experiments:
GLP-1R = molecular target: T1, GLP-1R (Homo sapiens, UniProt P43220); assay: GLP-1R agonistic effect in GLP1R-cAmp-Luc cells (luciferase reporter; titled 'Enzymatic assay'); type: cell-based; settings: for EC50: 4 hours incubation, firefly luciferin signal; for EC50 of Positive reference / EC50 of Compound of the Present Application: Positive reference is PF-06882961
T1 construct: expressed in transfected cells
Description: The GLP-1R agonistic effects of the test compounds were determined using GLP1R-cAmp-Luc cells. 1) The test compound was dissolved in DMSO and mixed well until the test compound was completely dissolved. The test compounds were dissolved in DMSO to prepare 10 mM stock solutions. All compounds were diluted with DMEM medium (high sugar, Puromycin^+, Hygromycin B^+) to an initial concentration of 1250 nM, and then subjected to 5-fold serial dilution to a total of 7 concentration gradients. The GLP1R-cAmp-Luc cells were seeded in white-wall 96-well cell culture plates at a density of 1×10^5/mL, with 90 µL cell suspension per well; the test compound at each of the 7 concentration gradients was added at 10 µL per well, with the actual initial working concentration of 125 nM; and the cells were placed in a 37 °C, 5% CO2 cell incubator for 4 hours; 2) 100 µL of luciferin potassium salt solution diluted to 300 µg/mL in PBS was added to each well at a working concentration of 150 µg/mL and incubated at room temperature for 30 minutes; 3) fluorescence signals of firefly luciferin were measured with a multifunctional microplate reader (PerkinElmer, Nivo); and the fluorescence values were processed using GraphPad Prism software to calculate EC50 values.

[1] = In vivo pharmacokinetic assay in mice; settings: mouse; ICR mice (female), oral gavage 10 mg/kg, plasma
Description: Experimental animals: ICR mice (female, 22-25 g), purchased from Beijing Vital River Laboratory Animal Technology Co., Ltd.
Experimental procedure: ICR mice were administered the test compounds by gavage. Whole blood samples of the mice were collected at 15 min, 0.5 h, 1 h, 2 h, 4 h, 8 h and 24 h after administration and centrifuged to isolate plasma. The compound concentration was measured by LC-MS/MS, and pharmacokinetic parameters such as Area Under the Concentration-Time Curve (AUC) were calculated using Winnolin software.
Oral gavage dose: 10 mg/kg.
Measurement method: Quantitative analysis was carried out in the LC/MS/MS system after pretreatment with a protein precipitation method.

[2] = system: C57BL/6 hGLP1R transgenic mice; assay: Determination of food intake inhibition rate; type: in vivo; settings: C57BL/6 hGLP1R mice, gavage, 2mpk, administrated once
Description: The food intake of C57BL/6 hGLP1R transgenic mice in each cage was measured at 18:00 on the day before administration, and the remaining weight of food was measured at 8: 00 on the next day (day 0) The difference between the two measurements was recorded as the baseline food intake weight. The mice were randomly grouped (test compound group and vehicle group) according to the baseline food intake and body weight. The food intake and body weight of the mice at 0 h were measured before administration. The mice were administered by gavage at 20:00 on day 0, and then the food intake and body weight of the mice were measured at specific time points. The phase (within a defined period of time) food intake, phase food intake rate, cumulative (after administration to a specific time point) food intake, cumulative food intake rate and body weight were finally statistically analyzed to evaluate the food intake inhibitory effect of the compounds. Cumulative Food intake (g) = (mbefore)−(mafter). [formula]
"m before" is the weight of food before food intaking for the period of time, and "m after" is the weight of food after food intaking for the period of time. Food intake inhibition rate (%) = (1−(madministrationgroup)/(mvehiclegroup))*100. [formula]
"m administration group" is the cumulative food intake of the administration group during the period of time, and "m vehicle group" is the cumulative food intake of the vehicle group during the period of time.

T1 sequence (P43220 24-463, species assumed): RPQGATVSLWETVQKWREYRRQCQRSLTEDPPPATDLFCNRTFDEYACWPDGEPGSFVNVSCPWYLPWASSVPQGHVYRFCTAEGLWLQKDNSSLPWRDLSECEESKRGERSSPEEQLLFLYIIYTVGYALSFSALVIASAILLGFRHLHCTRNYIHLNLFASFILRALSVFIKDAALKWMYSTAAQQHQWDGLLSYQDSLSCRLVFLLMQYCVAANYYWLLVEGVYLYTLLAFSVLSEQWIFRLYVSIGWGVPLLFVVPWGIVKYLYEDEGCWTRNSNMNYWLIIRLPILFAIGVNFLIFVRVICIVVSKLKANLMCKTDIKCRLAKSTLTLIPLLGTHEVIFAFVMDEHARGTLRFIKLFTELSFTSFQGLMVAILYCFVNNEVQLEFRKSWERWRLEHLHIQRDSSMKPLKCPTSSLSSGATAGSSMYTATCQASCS

Structure (SMILES)	EC50 (GLP-1R)	AUC(0-t) [1]	EC50 of Positive reference / EC50 of Compound of the Present Application (GLP-1R)	cumulative food intake inhibition rate 0-2.5 hours ([2]; 0-2.5 hours)	cumulative food intake inhibition rate 0-5 hours ([2]; 0-5 hours)	cumulative food intake inhibition rate 0-12 hours ([2]; 0-12 hours)
O=C(O)c1ccc2nc(Cc3c(F)cc(-c4cccc(OCc5ccc(Cl)cc5F)n4)c4c3CCO4)n(CC3(CF)CC3)c2c1 [Compound 14, 2-((7-(6-((4-chloro-2-fluorobenzyl)oxy)pyridin-2-yl)-5-fluoro-2,3-dihydrobenzofuran-4-yl)methyl)-1-((1-(fluoromethyl)cyclopropyl)methyl)-1H-benzo[d]imidazole-6-carboxylic acid]	1 to 5 nM	12700 ng·h/mL	–	–	–	–
COc1cc(C(F)(F)F)ccc1COc1cccc(-c2cc(F)c(Cc3nc4ccc(C(=O)O)cc4n3CC3(CF)CC3)c3c2OCC3)n1 [Compound 83, 2-((5-Fluoro-7-(6-((2-methoxy-4-(trifluoromethyl)benzyl)oxy)pyridin-2-yl)-2,3-dihydrobenzofuran-4-yl)methyl)-1-((1-(fluoromethyl)cyclopropyl)methyl)-1H-benzo[d]imidazole-6-carboxylic acid]	–	14000 ng·h/mL	–	–	–	–
COc1cc(C(=O)O)cc2c1nc(Cc1c(F)cc(-c3cccc(OCc4ccc(C#N)cc4F)n3)c3c1CCO3)n2CC1(CF)CC1 [Compound 93, 2-((7-(6-((4-Cyano-2-fluorobenzyl)oxy)pyridin-2-yl)-5-fluoro-2,3-dihydrobenzofuran-4-yl)methyl)-1-((1-(fluoromethyl)cyclopropyl)methyl)-4-methoxy-1H-benzo[d]imidazole-6-carboxylic acid]	≤ 1 nM	8440 ng·h/mL	–	–	–	–
COc1cc(C(=O)O)cc2c1nc(Cc1c(F)cc(-c3nc(OCc4ccc(Cl)cc4F)ncc3F)c3c1CCO3)n2C[C@@H]1CCO1 [Compound 118, (S)-2-((7-(2-((4-chloro-2-fluorobenzyl)oxy)-5-fluoropyrimidin-4-yl)-5-fluoro-2,3-dihydrobenzofuran-4-yl)methyl)-4-methoxy-1-(oxetan-2-ylmethyl)-1H-benzo[d]imidazole-6-carboxylic acid]	≤ 1 nM	8300 ng·h/mL	Ratio ≥10	–	–	–
COc1cc(C(=O)O)cc2c1nc(Cc1c(F)cc(-c3nccc(OCc4ccc(C5COC5)cc4F)n3)c3c1CCO3)n2C[C@@H]1CCO1 [Compound 127, (S)-2-((7-(4-((2-fluoro-4-(oxetan-3-yl)benzyl)oxy)pyrimidin-2-yl)-5-fluoro-2,3-dihydrobenzofuran-4-yl)methyl)-4-methoxy-1-(oxetan-2-ylmethyl)-1H-benzo[d]imidazole-6-carboxylic acid]	1 to 5 nM	–	–	–	–	–
COc1cc(C(=O)O)cc2c1nc(Cc1c(F)cc(-c3nc(OCc4ccc(C5COC5)cc4F)ncc3F)c3c1CCO3)n2C[C@@H]1CCO1 [Compound 128, (S)-2-((7-(5-fluoro-2-((2-fluoro-4-(oxetan-3-yl)benzyl)oxy)pyrimidin-4-yl)-5-fluoro-2,3-dihydrobenzofuran-4-yl)methyl)-4-methoxy-1-(oxetan-2-ylmethyl)-1H-benzo[d]imidazole-6-carboxylic acid]	≤ 1 nM	–	Ratio ≥10	–	–	–
COc1cc(C(=O)O)cc2c1nc(Cc1c(F)cc(-c3ncc(F)c(OCc4ccc(C5COC5)cc4F)n3)c3c1CCO3)n2C[C@@H]1CCO1 [Compound 129, (S)-2-((7-(5-fluoro-4-((2-fluoro-4-(oxetan-3-yl)benzyl)oxy)pyrimidin-2-yl)-5-fluoro-2,3-dihydrobenzofuran-4-yl)methyl)-4-methoxy-1-(oxetan-2-ylmethyl)-1H-benzo[d]imidazole-6-carboxylic acid]	≤ 1 nM	–	–	–	–	–
COc1cc(C(F)(F)F)ccc1COc1ncc(F)c(-c2cc(F)c(Cc3nc4c(OC)cc(C(=O)O)cc4n3C[C@@H]3CCO3)c3c2OCC3)n1 [Compound 130, (S)-2-((7-(5-fluoro-2-((2-methoxy-4-(trifluoromethyl)benzyl)oxy)pyrimidin-4-yl)-5-fluoro-2,3-dihydrobenzofuran-4-yl)methyl)-4-methoxy-1-(oxetan-2-ylmethyl)-1H-benzo[d]imidazole-6-carboxylic acid]	≤ 1 nM	–	Ratio ≥10	–	–	–
COc1cc(C(=O)O)cc2c1nc(Cc1c(F)cc(-c3nc(OCc4ccc(Cl)cc4OC(F)F)ncc3F)c3c1CCO3)n2C[C@@H]1CCO1 [Compound 131]	≤ 1 nM	–	Ratio ≥10	–	–	–
COc1cc(C(=O)O)cc2c1nc(Cc1c(F)cc(-c3nc(OCc4ccc(C)cc4F)ncc3F)c3c1CCO3)n2C[C@@H]1CCO1 [Compound 134]	≤ 1 nM	15700 ng·h/mL	Ratio ≥10	–	–	–

Continued, in another order:

EC50 (GLP-1R)	AUC(0-t) [1]	EC50 of Positive reference / EC50 of Compound of the Present Application (GLP-1R)	Structure (SMILES)	cumulative food intake inhibition rate 0-2.5 hours ([2]; 0-2.5 hours)	cumulative food intake inhibition rate 0-5 hours ([2]; 0-5 hours)	cumulative food intake inhibition rate 0-12 hours ([2]; 0-12 hours)
≤ 1 nM	14100 ng·h/mL	–	COc1cc(C(F)(F)F)ccc1COc1cccc(-c2cc(F)c(Cc3nc4c(OC)cc(C(=O)O)cc4n3CC3(CF)CC3)c3c2OCC3)n1 [Compound 89, 2-((5-Fluoro-7-(6-((2-methoxy-4-(trifluoromethyl)benzyl)oxy)pyridin-2-yl)-2,3-dihydrobenzofuran-4-yl)methyl)-1-((1-(fluoromethyl)cyclopropyl)methyl)-4-methoxy-1H-benzo[d]imidazole-6-carboxylic acid]	–	–	–
–	23700 ng·h/mL	–	COc1cc(C(=O)O)cc2c1nc(Cc1c(F)cc(-c3cccc(OCc4ccc(Cl)cc4F)n3)c3c1CCO3)n2CC1(CF)CC1 [Compound 92, 2-((7-(6-((4-Chloro-2-fluorobenzyl)oxy)pyridin-2-yl)-5-fluoro-2,3-dihydrobenzofuran-4-yl)methyl)-1-((1-(fluoromethyl)cyclopropyl)methyl)-4-methoxy-1H-benzo[d]imidazole-6-carboxylic acid]	–	–	–
≤ 1 nM	22500 ng·h/mL	Ratio ≥10	COc1cc(C(=O)O)cc2c1nc(Cc1c(F)cc(-c3ccc(F)c(OCc4ccc(Cl)cc4F)n3)c3c1CCO3)n2C[C@@H]1CCO1 [Compound 101, (S)-2-((7-(6-((4-chloro-2-fluorobenzyl)oxy)-5-fluoropyridin-2-yl)-5-fluoro-2,3-dihydrobenzofuran-4-yl)methyl)-4-methoxy-1-(oxetan-2-ylmethyl)-1H-benzo[d]imidazole-6-carboxylic acid]	97%	89%	75%
1 to 5 nM	6900 ng·h/mL	–	COc1cc(C(=O)O)cc2c1nc(Cc1c(F)cc(-c3ccc(F)c(OCc4ccc(Cl)cc4F)c3)c3c1CCO3)n2C[C@@H]1CCO1 [Compound 105, (S)-2-((7-(3-((4-chloro-2-fluorobenzyl)oxy)-4-fluorophenyl)-5-fluoro-2,3-dihydrobenzofuran-4-yl)methyl)-4-methoxy-1-(oxetan-2-ylmethyl)-1H-benzo[d]imidazole-6-carboxylic acid]	–	–	–
≤ 1 nM	19500 ng·h/mL	Ratio ≥10	COc1cc(C(=O)O)cc2c1nc(Cc1c(F)cc(-c3ccc(F)c(OCc4ccc(C)cc4F)n3)c3c1CCO3)n2C[C@@H]1CCO1 [Compound 132, (S)-2-((7-(5-fluoro-6-((2-fluoro-4-methylbenzyl)oxy)pyridin-2-yl)-5-fluoro-2,3-dihydrobenzofuran-4-yl)methyl)-4-methoxy-1-(oxetan-2-ylmethyl)-1H-benzo[d]imidazole-6-carboxylic acid]	–	–	–
≤ 1 nM	–	Ratio ≥10	COc1cc(C(=O)O)cc2c1nc(Cc1c(F)cc(-c3ccnc(OCc4ccc(C)cc4F)n3)c3c1CCO3)n2C[C@@H]1CCO1 [Compound 133, (S)-2-((7-(2-((2-fluoro-4-methylbenzyl)oxy)pyrimidin-4-yl)-5-fluoro-2,3-dihydrobenzofuran-4-yl)methyl)-4-methoxy-1-(oxetan-2-ylmethyl)-1H-benzo[d]imidazole-6-carboxylic acid]	–	–	–
